Measured values taken from patent publication US20250288587A1, “Methods of Treating Fibrosis” (Athira Pharma, Inc., priority 2022, published 2025).

Legend:
Assay type in all cases: in vivo
[1] = system: pulmonary LPS-stimulated rats; assay: Immune cell infiltration in BALF, LPS-induced acute pulmonary inflammation; design: key to Total Leukocytes in BALF, reduction in cell count vs disease control / Neutrophils in BALF, reduction in cell count vs disease control: + = >5-25% improvement vs disease control; ++ = >26-50% improvement vs disease control; +++ = >51-100% improvement v disease control; NS means not significant; conditions: 24 h and 0.5 h before LPS; for Neutrophils in BALF, reduction in cell count vs disease control / Total Leukocytes in BALF, reduction in cell count vs disease control: BALF 4 h post LPS
Source text: Acute pulmonary inflammation can be effectively modeled in rats by intratracheal administration of bacterial lipopolysaccharides (LPS). Pulmonary inflammation that is left unresolved can lead to pulmonary fibrosis. The normal process of inflammation is regulated and promoted by expression, secretion, and distribution of inflammatory signaling proteins. Therapeutics intended to reduce inflammation are commonly identified by their ability to change the expression levels of inflammatory signaling molecules, either by disruption of the inflammatory pathway directly, or resolution of the inflammatory signaling cascade. The severity of inflammatory response can be measured by quantifying the amount of immune cell infiltration and secretion of cytokine signaling proteins in bronchoalveolar lavage fluid (BALF).
In this study, acute pulmonary inflammation was induced in healthy male Sprague-Dawley rats (7-9 weeks old at study start) by intratracheal instillation of […] LPS in saline. Test animals were treated with test compounds twice, at 24 hours and 0.5 hours before LPS treatment by intravenous (IV) injection. […] Four hours post LPS administration, animals were euthanized by intraperitoneal injection of thiopentone and 20 mL of cold Hanks Balanced Salt Solution, pH 7.2, was infused into the lungs through tracheal cannulation. BALF was then collected.
Immune cell infiltration was performed by counting total leukocytes using a MUSE® mini flow cytometer, and by manual counting of neutrophil cells in cytospin smears stained with Leishman's staining reagent.

[2] = system: pulmonary LPS-stimulated rats; assay: Cytokine expression in BALF supernatant (multiplex immunoassay), LPS-induced acute pulmonary inflammation
CFA-stimulated rats [3] = assay: CFA inflammatory pain model, mechanical allodynia (von Frey test); design: key to Mechanical Allodynia, change in sensitivity compared to CFA alone / Mechanical Allodynia, significant reduction in pain behavior vs CFA alone: NS = no statistically significant change in sensitivity compared to CFA alone; + = statistically significant change in sensitivity compared to CFA alone, p < 0.05; conditions: for PWT (paw withdrawal threshold) vs CFA+vehicle: data not shown
Description: (§1) Response to peripheral inflammatory stimulus can be modeled by administering complete Freund's adjuvant (CFA), a suspension of desiccated mycobacterium in paraffin oil and mannide monooleate, by subcutaneous injection into the rat's footpad. The introduction of CFA to peripheral tissues leads to a rapid, sustained, inflammatory reaction in the treated tissue within 24 hours. Subcutaneous administration of CFA in the plantar region of the paw induces inflammatory pain behaviors that persist for at least 8 days. CFA treatment also leads to the accumulation of inflammatory cytokines in paw tissue at the site of injury, which, if unresolved, can lead to formation of fibrotic tissue. The extent of inflammatory response to CFA can be assessed by quantification of inflammatory cytokines in paw skin lysate, and inflammatory pain behaviors by mechanical allodynia (von Frey test) and thermal hyperalgesia (Hargreaves test).
(§2) In one study, Compound 2a was tested for its ability to reduce inflammatory pain behaviors in the CFA inflammation model. On study day 0, […] of CFA was administered subcutaneously in the plantar of the right hind paw. Animals were treated daily with Compound 2a in solution via oral gavage (PO) at doses of 1, 0.1, and 0.025 mg/kg. Treatment began before CFA injection on study day −1 and continued through study day 8.
Mechanical allodynia was measured using the von Frey test. In this test, rats were placed on a wire mesh and a series of filaments designed to deliver probing force ranging from 4 to 26 grams were applied to the mid-plantar surface of the right hind paw. Animals indicated pain response by lifting the probed paw. The minimal force required to elicit the withdrawal response was recorded as the paw withdrawal threshold (PWT). Von Frey testing was performed 1 hour after Compound 2a dosing on study day 1, 3, and 7, and was also tested pre-dosing on day 7. Statistical analysis was performed using a 1-way ANOVA with Tukey post-test. A p-value below 0.05 was considered statistically significant. Control animals stimulated with CFA but treated with only vehicle had high sensitivity to mechanical stimulation compared to normal control animals.
(§3) In another study, Compounds 1a, 5a, and 6a were similarly tested against CFA-induced inflammatory stimulation in the right hind foot for their ability to reduce pain behaviors. This study also included quantification of inflammatory cytokine expression in paw skin lysate. Inflammatory pain stimulation with CFA injection and assessment of mechanical and thermal pain behaviors were performed as described above, with the exception that only post-dose pain behavior testing is reported.
(§4) Intraplantar CFA injection occurred at day 0. Treatment with Compounds 1a, 5a, and 6a occurred at days −2, 1, 3, and 7. At day 8, the rats were terminated and cytokine levels were measured in paw skin and plasma. Tissue from paw bone, joint, and muscle were obtained for H&E staining and analysis. Cytokine levels in test compound-treated animals were compared to CFA-stimulated animals. Analytes included interleukin 4 (IL-4), tumor necrosis factor alpha (TNF-α) and interferon gamma (IFN-γ). Statistical analysis consisted of 1-way ANOVA followed by Dunnett's multiple comparisons post-test. Mechanical allodynia and thermal hyperalgesia were tested 1 hour post-dosing on days 1, 3, and 7. PWT refers to […] paw withdrawal threshold where a higher value corresponds to a higher pain threshold. PWL refers to […] paw withdrawal latency where a higher value corresponds to a higher pain threshold.

CFA-stimulated rats [4] = assay: CFA inflammatory pain model, thermal hyperalgesia (Hargreaves method); design: key to Thermal Hyperalgesia, change in sensitivity compared to CFA alone / Thermal Hyperalgesia, significant reduction in pain behavior vs CFA alone: NS = no statistically significant change in sensitivity compared to CFA alone; + = statistically significant change in sensitivity compared to CFA alone, p < 0.05
Description: as §1, §2
Thermal hyperalgesia was measured using the Hargreaves method. A temperature ramp was applied to the right hind paw and the paw withdrawal latency (PWL) was recorded as a measure of sensitivity to thermal stimulation. […] Statistical analysis was performed using a 1-way ANOVA with Tukey post-test. A p-value below 0.05 was considered statistically significant.
as §3, §4

[5] = 0.075 mg/kg IV, 24 h and 0.5 h before LPS
[6] = 0.75 mg/kg IV, 24 h and 0.5 h before LPS
[7] = 8 mg/kg PO, Day 1, 1 h post-dose
[8] = 8 mg/kg PO, Day 3, 1 h post-dose
[9] = 8 mg/kg PO, Day 7, 1 h post-dose
[10] = 16 mg/kg PO, Day 1, 1 h post-dose
[11] = 16 mg/kg PO, Day 3, 1 h post-dose
[12] = 16 mg/kg PO, Day 7, 1 h post-dose
[13] = PO, post-dose testing, any tested dose

CCC(C)CN1CC2N(C(=O)c3ccc(C(F)(F)F)cc3)CCC(=O)N2[C@@H](C)C1=O (stereo partly drawn) [Compound 1a]
Neutrophils in BALF, reduction in cell count vs disease control ([1]; 0.075 mg/kg IV): + (+ = >5% reduction in cell count vs disease control) | Total Leukocytes in BALF, reduction in cell count vs disease control ([1]; 0.075 mg/kg IV): + (+ = >5% reduction in cell count vs disease control) | Neutrophils in BALF, reduction in cell count vs disease control ([1]; 0.75 mg/kg IV): NS | Total Leukocytes in BALF, reduction in cell count vs disease control ([1]; 0.75 mg/kg IV): NS | total leukocyte counts and neutrophil counts in BALF compared to LPS-only controls ([1]; IV): reduced both total leukocyte counts and neutrophil counts | CXCL10, significant change in cytokine expression in BALF supernatant [2, 5]: + (+ = Significant change in cytokine quantification, p < 0.05 by Student's T-test) | IFN-γ, significant change in cytokine expression in BALF supernatant [2, 5]: + (+ = Significant change in cytokine quantification, p < 0.05 by Student's T-test) | CXCL2, significant change in cytokine expression in BALF supernatant [2, 6]: + (+ = Significant change in cytokine quantification, p < 0.05 by Student's T-test) | CXCL10, significant change in cytokine expression in BALF supernatant [2, 6]: + (+ = Significant change in cytokine quantification, p < 0.05 by Student's T-test) | G-CSF, significant change in cytokine expression in BALF supernatant [2, 6]: + (+ = Significant change in cytokine quantification, p < 0.05 by Student's T-test) | IL-1β, significant change in cytokine expression in BALF supernatant [2, 6]: + (+ = Significant change in cytokine quantification, p < 0.05 by Student's T-test) | cytokines with significant changes in expression in BALF supernatant versus LPS-only animals ([2]; p<0.05, Student's T-test, any tested dose): G-CSF, CXCL2, CXCL10, IFN-γ, and IL-1β | Mechanical Allodynia, significant reduction in pain behavior vs CFA alone (CFA-stimulated rats [3]; [7]): + (+ = statistically significant change in sensitivity compared to CFA alone, p < 0.05) | Mechanical Allodynia, significant reduction in pain behavior vs CFA alone (CFA-stimulated rats [3]; [8]): + (+ = statistically significant change in sensitivity compared to CFA alone, p < 0.05) | Mechanical Allodynia, significant reduction in pain behavior vs CFA alone (CFA-stimulated rats [3]; [9]): NS | Mechanical Allodynia, significant reduction in pain behavior vs CFA alone (CFA-stimulated rats [3]; [10]): + (+ = statistically significant change in sensitivity compared to CFA alone, p < 0.05) | Mechanical Allodynia, significant reduction in pain behavior vs CFA alone (CFA-stimulated rats [3]; [11]): + (+ = statistically significant change in sensitivity compared to CFA alone, p < 0.05) | Mechanical Allodynia, significant reduction in pain behavior vs CFA alone (CFA-stimulated rats [3]; [12]): + (+ = statistically significant change in sensitivity compared to CFA alone, p < 0.05) | study days on which sensitivity to mechanical stimulation was reduced (CFA-stimulated rats [3]; [13]): study days 1, 3, and 7 | PWT (paw withdrawal threshold) vs CFA+vehicle (CFA-stimulated rats [3]; day 1): statistically significant increase | PWT (paw withdrawal threshold) vs CFA+vehicle (CFA-stimulated rats [3]; day 3, 8 and 16 mg/kg): statistically significant increase | PWT (paw withdrawal threshold) vs CFA+vehicle (CFA-stimulated rats [3]; day 7, 16 mg/kg): statistically significant increase | Thermal Hyperalgesia, significant reduction in pain behavior vs CFA alone (CFA-stimulated rats [4]; [7]): NS | Thermal Hyperalgesia, significant reduction in pain behavior vs CFA alone (CFA-stimulated rats [4]; [8]): NS | Thermal Hyperalgesia, significant reduction in pain behavior vs CFA alone (CFA-stimulated rats [4]; [9]): + (+ = statistically significant change in sensitivity compared to CFA alone, p < 0.05) | Thermal Hyperalgesia, significant reduction in pain behavior vs CFA alone (CFA-stimulated rats [4]; [10]): + (+ = statistically significant change in sensitivity compared to CFA alone, p < 0.05) | Thermal Hyperalgesia, significant reduction in pain behavior vs CFA alone (CFA-stimulated rats [4]; [11]): + (+ = statistically significant change in sensitivity compared to CFA alone, p < 0.05) | Thermal Hyperalgesia, significant reduction in pain behavior vs CFA alone (CFA-stimulated rats [4]; [12]): + (+ = statistically significant change in sensitivity compared to CFA alone, p < 0.05) | study days on which thermal sensitivity was reduced (CFA-stimulated rats [4]; [13]): study days 1, 3, and 7 | PWL (paw withdrawal latency) vs CFA+vehicle (CFA-stimulated rats [4]; day 7 at each dose, data not shown): statistically significant increase
